The text below walks through data of ChEMBL document CHEMBL2074370, “Are MDCK cells transfected with the human MDR1 gene a good model of the human intestinal mucosa?” (Pharm Res, 2002).

Data set [1] deals with ATP-dependent translocase ABCB1 (Homo sapiens, UniProt P08183). As to the kind of experiment: TP_TRANSPORTER: inhibition of Digoxin transepithelial transport (basal to apical) in MDR1-expressing MDCK cells. Type of data set: functional, cell-based.
Data set [2] relates to CC[C@]1(O)C[C@@H]2CN(CCc3c([nH]c4ccccc34)[C@@](C(=O)OC)(c3cc4c(cc3OC)N(C)[C@H]3[C@@](O)(C(=O)OC)[C@H](OC(C)=O)[C@]5(CC)C=CCN6CC[C@]43[C@@H]65)C2)C1. As to the kind of experiment: TP_TRANSPORTER: transepithelial transport (basal to apical) in MDR1-expressing MDCK cells. Type of data set: functional, cell-based.

ATP-dependent translocase ABCB1, sequence (P08183 whole entry): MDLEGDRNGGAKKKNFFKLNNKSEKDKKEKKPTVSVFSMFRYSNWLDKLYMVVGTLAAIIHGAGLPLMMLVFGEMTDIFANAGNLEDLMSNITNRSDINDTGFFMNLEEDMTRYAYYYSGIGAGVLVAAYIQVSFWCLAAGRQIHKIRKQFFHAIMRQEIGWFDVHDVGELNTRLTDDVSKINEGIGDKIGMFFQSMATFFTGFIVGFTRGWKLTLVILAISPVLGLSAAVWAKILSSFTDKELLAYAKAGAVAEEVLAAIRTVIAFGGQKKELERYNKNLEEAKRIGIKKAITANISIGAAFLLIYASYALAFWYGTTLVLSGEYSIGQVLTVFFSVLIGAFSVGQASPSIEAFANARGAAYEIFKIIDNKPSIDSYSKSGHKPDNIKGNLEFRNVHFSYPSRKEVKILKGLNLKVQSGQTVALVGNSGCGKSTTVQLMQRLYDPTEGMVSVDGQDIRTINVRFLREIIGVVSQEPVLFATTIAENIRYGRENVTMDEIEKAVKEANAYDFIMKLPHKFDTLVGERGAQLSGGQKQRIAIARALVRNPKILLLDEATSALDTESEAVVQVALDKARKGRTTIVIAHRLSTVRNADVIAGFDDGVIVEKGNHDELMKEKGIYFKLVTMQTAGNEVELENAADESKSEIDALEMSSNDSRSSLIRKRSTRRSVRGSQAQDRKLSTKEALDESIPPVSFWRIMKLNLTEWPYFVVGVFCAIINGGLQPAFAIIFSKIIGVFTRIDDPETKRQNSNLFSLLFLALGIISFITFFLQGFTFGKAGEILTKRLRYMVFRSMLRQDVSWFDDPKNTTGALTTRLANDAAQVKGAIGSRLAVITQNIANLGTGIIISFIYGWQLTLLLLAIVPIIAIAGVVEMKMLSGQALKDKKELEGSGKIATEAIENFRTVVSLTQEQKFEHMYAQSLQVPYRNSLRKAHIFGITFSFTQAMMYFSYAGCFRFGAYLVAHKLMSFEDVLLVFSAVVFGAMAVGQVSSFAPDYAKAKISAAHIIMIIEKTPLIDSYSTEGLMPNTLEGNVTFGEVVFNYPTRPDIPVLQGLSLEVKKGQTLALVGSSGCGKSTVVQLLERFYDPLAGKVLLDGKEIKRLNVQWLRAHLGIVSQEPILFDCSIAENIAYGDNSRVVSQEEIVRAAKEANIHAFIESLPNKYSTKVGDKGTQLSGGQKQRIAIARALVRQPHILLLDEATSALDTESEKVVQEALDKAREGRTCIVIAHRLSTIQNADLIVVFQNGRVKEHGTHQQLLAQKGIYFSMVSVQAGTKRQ

The Ki is the equilibrium dissociation constant of an inhibitor or competing ligand from its target. On to `COc1cccc2c1C(=O)c1c(O)c3c(c(O)c1C2=O)C[C@@](O)(C(C)=O)C[C@@H]3O[C@H]1C[C@H](N)[C@H](O)[C@H](C)O1` [DAUNORUBICIN], for which the inhibitory constant (Ki) in data set [1] turned out to be 111 µM.
On the same count and under the same terms, the figure for `COC(=O)[C@H]1[C@H]2C[C@@H]3c4[nH]c5cc(OC)ccc5c4CCN3C[C@H]2C[C@@H](OC(=O)c2cc(OC)c(OC)c(OC)c2)[C@@H]1OC` [RESERPINE] is 11.5 µM.
Still for that read-out and setting: under `CC[C@]1(O)C[C@H]2CN(CCc3c([nH]c4ccccc34)[C@@](C(=O)OC)(c3cc4c(cc3OC)N(C=O)[C@H]3[C@@](O)(C(=O)OC)[C@H](OC(C)=O)[C@]5(CC)C=CCN6CC[C@]43[C@@H]65)C2)C1` [VINCRISTINE] stands 213 µM.
What is called Km is the concentration of substrate that gives half-maximal velocity. “ATP-dependent translocase ABCB1 (Homo sapiens)”: the Michaelis constant (Km) in data set [2] was 253 µM.
